# Results reported in ChEMBL document CHEMBL2417537, “Synthesis and antifungal activity of terpenyl-1,4-naphthoquinone and 1,4-anthracenedione derivatives” (Eur J Med Chem, 2013).
# The source made the active and inactive calls. The calls are words filed in the database; no cut-off is given here.
# Experiments:
# [1] = tested on: Candida tropicalis; experiment: Antifungal activity against Candida tropicalis CECT 11901 after 24 hrs; conditions: CECT 11901, 24 h
# [2] = tested on: Vero; experiment: Cytotoxicity against african green monkey Vero cells after 48 hrs by MTT assay; assay type: cell-based; conditions: Chlorocebus sabaeus
# [3] = tested on: Fusarium oxysporum; experiment: Antifungal activity against Fusarium oxysporum ATCC 48112 after 48 hrs; assay type: functional; conditions: ATCC 48112, 48 h
# [4] = tested on: Clavispora lusitaniae; experiment: Antifungal activity against Candida lusitaniae ATCC 200951 after 24 hrs; assay type: functional; conditions: ATCC 200951, 24 h
# [5] = tested on: Trichophyton mentagrophytes; experiment: Antifungal activity against Trichophyton mentagrophytes ATCC 24198 after 6 days; assay type: functional; conditions: ATCC 24198, 144 h
# [6] = tested on: Aspergillus fumigatus; experiment: Antifungal activity against Aspergillus fumigatus ATCC 204305 after 48 hrs; assay type: functional; conditions: ATCC 204305, 48 h
# [7] = tested on: Candida tropicalis; experiment: Antifungal activity against Candida tropicalis ATCC 200956 after 24 hrs; assay type: functional; conditions: ATCC 200956, 24 h
# [8] = tested on: Pichia kudriavzevii; experiment: Antifungal activity against Candida krusei ATCC 6258 after 24 hrs; assay type: functional; conditions: ATCC 6258, 24 h
# [9] = tested on: Candida albicans; experiment: Antifungal activity against Candida albicans ATCC 90028 after 24 hrs; assay type: functional; conditions: ATCC 90028, 24 h
# [10] = tested on: Aspergillus terreus; experiment: Antifungal activity against Aspergillus terreus CDC 317 after 48 hrs; assay type: functional; conditions: CDC 317, 48 h
# [11] = tested on: Aspergillus niger; experiment: Antifungal activity against Aspergillus niger ATCC 16404 after 48 hrs; assay type: functional; conditions: ATCC 16404, 48 h
# [12] = tested on: Candida albicans; experiment: Antifungal activity against Candida albicans ATCC 10231 after 24 hrs; assay type: functional; conditions: ATCC 10231, 24 h
# [13] = tested on: Candida parapsilosis; experiment: Antifungal activity against Candida parapsilosis ATCC 22019 after 24 hrs; assay type: functional; conditions: ATCC 22019, 24 h
# [14] = tested on: Trichophyton rubrum; experiment: Antifungal activity against Trichophyton rubrum ATCC 28188 after 6 days; assay type: functional; conditions: ATCC 28188, 144 h
# [15] = Selectivity index, ratio of IC50 for african green monkey Vero cells to IC50 for Trichophyton rubrum ATCC 28188; assay type: toxicity, cell-based; conditions: read-out: Ratio IC50
# [16] = tested on: Aspergillus flavus; experiment: Antifungal activity against Aspergillus flavus ATCC 204304 after 48 hrs; assay type: functional; conditions: ATCC 204304, 48 h
# [17] = tested on: Candida parapsilosis; experiment: Antifungal activity against Candida parapsilosis ATCC 22019 at > MIC up to 24 hrs by time kill study; assay type: functional, organism-based
# [18] = Selectivity index, ratio of IC50 for african green monkey Vero cells to IC50 for Candida krusei ATCC 6258; assay type: toxicity, cell-based; conditions: read-out: Ratio IC50
# [19] = Selectivity index, ratio of IC50 for african green monkey Vero cells to IC50 for Candida lusitaniae ATCC 200951; assay type: toxicity, cell-based; conditions: read-out: Ratio IC50
# [20] = Selectivity index, ratio of IC50 for african green monkey Vero cells to IC50 for Trichophyton mentagrophytes ATCC 24198; assay type: toxicity, cell-based; conditions: read-out: Ratio IC50
# [21] = Selectivity index, ratio of IC50 for african green monkey Vero cells to IC50 for Aspergillus fumigatus ATCC 204305; assay type: toxicity, cell-based; conditions: read-out: Ratio IC50
structure (smiles),measurement,setting,value
CCNC1=CC(=O)c2cc3c(cc2C1=O)C(C)(C)CCC3,MIC90,[1],> 32 µg/mL
same,IC50,[2],35.6 µg/mL
same,MIC90,[3],> 32 µg/mL
same,MIC90,[4],> 32 µg/mL
same,MIC90,[5],5 µg/mL
same,MIC90,[6],> 32 µg/mL
same,MIC90,[7],> 32 µg/mL
same,MIC90,[8],> 32 µg/mL
same,MIC90,[9],> 32 µg/mL
same,MIC90,[10],> 32 µg/mL
same,MIC90,[11],> 32 µg/mL
same,MIC90,[12],> 32 µg/mL
same,MIC90,[13],> 32 µg/mL
same,MIC90,[14],3.2 µg/mL
same,selectivity ratio,[15],11.1
same,MIC90,[16],> 32 µg/mL
CCOC1=C(OCC)C(=O)c2cc3c(cc2C1=O)CCCC3(C)C,MIC90,[1],> 32 µg/mL
same,IC50,[2],≤ 25 µg/mL
same,MIC90,[3],> 32 µg/mL
same,MIC90,[4],> 32 µg/mL
same,MIC90,[5],> 32 µg/mL
same,MIC90,[6],> 32 µg/mL
same,MIC90,[7],> 32 µg/mL
same,MIC90,[8],> 32 µg/mL
same,MIC90,[9],> 32 µg/mL
same,MIC90,[10],> 32 µg/mL
same,MIC90,[11],> 32 µg/mL
same,MIC90,[12],> 32 µg/mL
same,MIC90,[13],> 32 µg/mL
same,MIC90,[14],> 32 µg/mL
same,MIC90,[16],> 32 µg/mL
CCC(C)n1ncn(-c2ccc(N3CCN(c4ccc(OCC5COC(Cn6cncn6)(c6ccc(Cl)cc6Cl)O5)cc4)CC3)cc2)c1=O (centres undefined) [ITRACONAZOLE],IC50,[2],> 50 µg/mL
same,MIC90,[6],0.2 µg/mL
same,MIC90,[8],0.5 µg/mL
same,MIC90,[13],0.25 µg/mL
same,Activity,[17],Active
same,MIC90,[16],0.1 µg/mL
same,selectivity ratio,[18],> 100
COc1ccc(NC2=C(Cl)C(=O)c3cc(CCCC(C)C)ccc3C2=O)cc1,MIC90,[1],> 32 µg/mL
same,IC50,[2],35.6 µg/mL
same,MIC90,[3],> 32 µg/mL
same,MIC90,[4],16 µg/mL
same,MIC90,[5],5 µg/mL
same,MIC90,[6],> 32 µg/mL
same,selectivity ratio,[19],2.2
same,MIC90,[7],32 µg/mL
same,MIC90,[8],> 32 µg/mL
same,MIC90,[9],> 32 µg/mL
same,MIC90,[10],> 32 µg/mL
same,MIC90,[11],> 32 µg/mL
same,MIC90,[12],> 32 µg/mL
same,MIC90,[13],> 32 µg/mL
same,MIC90,[14],12.7 µg/mL
same,selectivity ratio,[20],7.1
same,MIC90,[16],> 32 µg/mL
CC1(C)CCCc2cc3c(cc21)C(=O)C=CC3=O,MIC90,[1],12.7 µg/mL
same,IC50,[2],8.6 µg/mL
same,MIC90,[3],> 32 µg/mL
same,MIC90,[4],5 µg/mL
same,MIC90,[5],1.3 µg/mL
same,MIC90,[6],> 32 µg/mL
same,MIC90,[7],5 µg/mL
same,MIC90,[8],4 µg/mL
same,MIC90,[9],22.6 µg/mL
same,MIC90,[10],> 32 µg/mL
same,MIC90,[11],> 32 µg/mL
same,MIC90,[12],18 µg/mL
same,MIC90,[13],4.8 µg/mL
same,MIC90,[14],4 µg/mL
same,selectivity ratio,[20],6.6
same,MIC90,[16],> 32 µg/mL
same,selectivity ratio,[18],2.2
CN(C/C=C/C#CC(C)(C)C)Cc1cccc2ccccc12 [TERBINAFINE],IC50,[2],30.9 µg/mL
same,MIC90,[5],0.03 µg/mL
same,MIC90,[14],0.08 µg/mL
same,selectivity ratio,[15],386
CC(C)CCCc1ccc2c(c1)C(=O)C(Br)=C(Br)C2=O,MIC90,[1],> 32 µg/mL
same,IC50,[2],≤ 25 µg/mL
same,MIC90,[3],> 32 µg/mL
same,MIC90,[4],> 32 µg/mL
same,MIC90,[5],> 32 µg/mL
same,MIC90,[6],> 32 µg/mL
same,MIC90,[7],> 32 µg/mL
same,MIC90,[8],> 32 µg/mL
same,MIC90,[9],> 32 µg/mL
same,MIC90,[10],> 32 µg/mL
same,MIC90,[11],> 32 µg/mL
same,MIC90,[12],> 32 µg/mL
same,MIC90,[13],> 32 µg/mL
same,MIC90,[14],32 µg/mL
same,MIC90,[16],32 µg/mL
CC(=O)NC1=C(Cl)C(=O)c2cc3c(cc2C1=O)CCCC3(C)C,MIC90,[1],6.4 µg/mL
same,IC50,[2],22.3 µg/mL
same,MIC90,[3],32 µg/mL
same,MIC90,[4],2.2 µg/mL
same,MIC90,[5],3.2 µg/mL
same,MIC90,[6],22.6 µg/mL
same,selectivity ratio,[19],10.1
same,MIC90,[7],4 µg/mL
same,MIC90,[8],2.8 µg/mL
same,MIC90,[9],8 µg/mL
same,MIC90,[10],> 32 µg/mL
same,MIC90,[11],> 32 µg/mL
same,MIC90,[12],4 µg/mL
same,MIC90,[13],8 µg/mL
same,MIC90,[14],5 µg/mL
same,selectivity ratio,[20],7.1
same,MIC90,[16],> 32 µg/mL
same,selectivity ratio,[21],0.9
COc1ccc(NC2=C(Br)C(=O)c3cc(CCCC(C)C)ccc3C2=O)cc1,MIC90,[1],> 32 µg/mL
same,IC50,[2],58.5 µg/mL
same,MIC90,[3],> 32 µg/mL
same,MIC90,[4],> 32 µg/mL
same,MIC90,[5],> 32 µg/mL
same,MIC90,[6],> 32 µg/mL
same,MIC90,[7],> 32 µg/mL
same,MIC90,[8],> 32 µg/mL
same,MIC90,[9],> 32 µg/mL
same,MIC90,[10],> 32 µg/mL
same,MIC90,[11],> 32 µg/mL
same,MIC90,[12],> 32 µg/mL
same,MIC90,[13],> 32 µg/mL
same,MIC90,[14],> 32 µg/mL
same,MIC90,[16],> 32 µg/mL
